Assay results taken from US7381733B2, “Tropane derivatives having dopamine reuptake inhibitor activity for the treatment of ischemic diseases” (Neurosearch A/S, priority 2001, dated 2008).

System: TH positive cells in the substantia nigra
Assay: Protection of the substantia nigra after transient global ischaemia in gerbils (TH positive cell count)
Format: in vivo, Mongolian gerbils
Settings: 2 mg/kg i.p. 2 minutes after end of occlusion
Procedure: Protection of the Substantia Nigra after Transient Global Ischaemia in Gerbils
In this experiment, the neuroprotective effect of a test compound is assessed in an animal model of transient global ischaemia.
Method: In halothane anaesthetised gerbils, right and left carotid arteries are located and occluded for 10 minutes. Animals are kept at normal body temperature before and after the operation using heating lamps. During surgery, the gerbils are placed on heating pads, the body temperature is controlled and maintained at 37±0.5° C. The test compound is dosed at specified time points after the ischaemic insult, either i.v., i.p., s.c. or p.o.
Fourteen days later, the animals are sacrificed, brains removed and cooled to −70° C. Thereafter, the brains are sectioned in 20 μm thick sections through the substantia nigra region. Sections are stained for tyroxine hydroxylase (TH+) expression using immunohistochemistry. The number of TH+ cells in the sections is counted and the total number of TH+ cells in the substantia nigra is calculated by means of stereology. […]
After 14 days, the animals were sacrificed and the brains sectioned. […] The total number of TH positive cells after ischemia or in control animals were determined by means of stereological cell counting.

## CON=C[C@@H]1[C@@H](c2ccc(Cl)c(Cl)c2)CC2CC[C@H]1N2C [test compound, (1R,2R,3S)-3-(3,4-dichlorophenyl)-tropane-2-O-methyl-aldoxime]
10 min bilateral carotid artery occlusion, counted after 14 days by stereology, control 9531, ischemia 7510
  Mean number of cells (total number of TH positive cells in the substantia nigra): 10615 cells
10 min carotid artery occlusion, 14 days
  number of surviving TH positive cells in the substantia nigra after ischemia, compared with untreated ischemia: apparently increased
